Results from article PMC4569695, “Optogenetic manipulation of cGMP in cells and animals by the tightly light-regulated guanylyl-cyclase opsin CyclOp” (Nature Communications, 2015).

Target: T1, bPGC (Beggiatoa sp. PS, UniProt Z9M4H6XJE9, K200E/D268K/T270G)
T1 construct: triple mutant of human codon-optimized bPAC, C-terminal YFP, expressed in Xenopus oocytes
T1 sequence (Z9M4H6XJE9 4-353 K200E/D268K/T270G): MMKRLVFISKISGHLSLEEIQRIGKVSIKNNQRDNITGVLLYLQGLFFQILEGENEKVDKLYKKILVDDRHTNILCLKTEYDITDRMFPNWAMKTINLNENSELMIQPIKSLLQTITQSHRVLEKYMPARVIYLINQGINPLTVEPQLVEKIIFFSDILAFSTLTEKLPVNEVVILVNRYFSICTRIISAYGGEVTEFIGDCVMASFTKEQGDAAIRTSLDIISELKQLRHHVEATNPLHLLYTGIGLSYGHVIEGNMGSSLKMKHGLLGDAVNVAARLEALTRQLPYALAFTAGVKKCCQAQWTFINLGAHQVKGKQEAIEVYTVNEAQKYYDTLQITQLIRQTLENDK
Assay: cGMP immunoassay, extracts of intact oocytes
Format: cell-based
Details: endogenous GTP, 464 nm light

In the case of `Nc1nc2c(ncn2[C@@H]2O[C@H](COP(=O)(O)OP(=O)(O)OP(=O)(O)O)[C@@H](O)[C@H]2O)c(=O)[nH]1` [GTP], the “cGMP immunoassay, extracts of intact oocytes” value is reported as “bPGC produced at least one cAMP for every four cGMP molecules under in vivo conditions”.
